This note sets out measurements from patent US10519145B2, “Pyrazole-oxazolidinone compound for anti-hepatitis B virus” (Shanghai Zhimeng Biopharma Co., Ltd., priority 2016, dated 2019).

Each structure is given as a SMILES string.

Data set [1] deals with HBV DNA in mouse plasma. In words: Determination of pharmacodynamics in vivo (high pressure tail vein injection of HBV DNA). Particulars: 25 mpk, intraperitoneal daily. The method, then: High pressure injection of HBV DNA in tail vein and administration methods:
HBV plasmid DNA solution was high-pressure injected via the tail veins of the mouse: the plasmid DNA was pre-dissolved in physiological saline (10 μg/1.4 ml, 10 μg/1.5 ml) before injection and stored at 4 until its use. The mice were injected with a plasmid DNA solution at a dosage of 8% of the body weight from the tail vein in 5 seconds. If the injection volume is less than or equal to 1.4 ml, 10 μg/1.4 ml of plasmid solution was used; if the injection volume is greater than or equal to 1.5 ml, 10 μg/1.5 ml of plasmid solution was used.
On 1st-7th day, the mice were continuously injected intraperitoneally with the test compound or solvent for 7 days. […] The plasma was divided into two and one was sent to anti-infective groups in the Department of Biology for HBV DNA detection, and the other was ready for use. […]
Quantitative PCR was used to detect the content of HBV DNA in mouse plasma. […]
Quantitative PCR detection of HBV DNA content: In order to rule out possible interference with injected HBV plasmid DNA, two sets of primers and probes were used simultaneously for the assay. […]
HBV DNA content =DNA content detected by HBV primers - DNA content detected by pAAV2 primers

In data set [2] the test system is HBV (HepG2.2.15 cells). In words: Anti-HBV activity experiment in vitro (HepG2.2.15, HBV DNA in supernatant, qPCR). In kind it is cell-based. The following applies: Hepatitis B virus, HBV DNA in supernatant by qPCR, eighth day. The method, then:
Compound Dilution: initial concentrations of all compounds used in the anti-HBV activity experiments in vitro were 1 μM, 3-fold diluted into 8 concentrations; initial concentrations of all compounds used in the cytotoxicity assay were 100 μM, 3-fold diluted into 8 concentrations; and the mother liquor of the compound was diluted with DMSO.
(§1) Anti-HBV Activity Experiment In Vitro: HepG2.2.15 cells (4×10^4 cells/well) were seeded in 96-well plates and cultured overnight at 37° C. in 5% CO2. The next day, fresh cultures containing compounds in different concentrations were added into the culture wells. On the fifth day, the old culture medium in the culture wells was aspirated and removed. Fresh medium containing compounds in different concentrations was added. On the eighth day, supernatants in the culture wells were collected and used to extract HBV DNA in the supernatant. qPCR assay was used to detect HBV DNA content in the HepG2.2.15 supernatant.
The data analysis and the percentage of inhibition calculation: the percentage of inhibition was calculated by using the following formula: Inhibition %=[(HBV amount in DMSO control−HBV amount in sample)/HBV amount in DMSO control]×100%.
Background: Real-time PCR tracks product formation cycle by cycle.

Data set [3] has as its system HBV strain U95551 (WT). In words: In vitro anti-nucleoside drug-resistant HBV strain activity experiment, transient transfection. The class given is cell-based. The following applies: Hepatitis B virus, transfected HepG2 cells. The method, then:
as §1, with “Compounds were tested for in vitro activity against nucleoside drug-resistant HBV strains using a transient transfection cell model. HepG2 cells” for “Anti-HBV Activity Experiment In Vitro: HepG2.2.15 cells”, “cells/well) that had been transfected with nucleoside drug-resistant HBV strains” for “cells/well)”, “seeded into” for “seeded in”, “removed. The fresh” for “removed. Fresh”, “the HepG2” for “the HepG2.2.15”

Data set [4] relates to nucleoside drug-resistant HBV strain M204I. Described as above. In kind it is cell-based. Particulars: Hepatitis B virus, HepG2. The method, then: as §1, with “Compounds were tested for in vitro activity against nucleoside drug-resistant HBV strains using a transient transfection cell model. HepG2 cells” for “Anti-HBV Activity Experiment In Vitro: HepG2.2.15 cells”, “cells/well) that had been transfected with nucleoside drug-resistant HBV strains” for “cells/well)”, “seeded into” for “seeded in”, “removed. The fresh” for “removed. Fresh”, “the HepG2” for “the HepG2.2.15”

Data set [5] has as its system nucleoside drug-resistant HBV strain M204I + S202G. The data set is described as above. The class given is cell-based. The following applies: Hepatitis B virus, HepG2, 192 h. The method, then:
as §1, with “Compounds were tested for in vitro activity against nucleoside drug-resistant HBV strains using a transient transfection cell model. HepG2 cells” for “Anti-HBV Activity Experiment In Vitro: HepG2.2.15 cells”, “cells/well) that had been transfected with nucleoside drug-resistant HBV strains” for “cells/well)”, “seeded into” for “seeded in”, “removed. The fresh” for “removed. Fresh”, “the HepG2” for “the HepG2.2.15”

Data set [6] has as its system nucleoside drug-resistant HBV strain M204I + S202G + M250V. The data set is described as above. The class given is cell-based. Particulars: Hepatitis B virus, HepG2, 192 h. The method, then: as §1, with “Compounds were tested for in vitro activity against nucleoside drug-resistant HBV strains using a transient transfection cell model. HepG2 cells” for “Anti-HBV Activity Experiment In Vitro: HepG2.2.15 cells”, “cells/well) that had been transfected with nucleoside drug-resistant HBV strains” for “cells/well)”, “seeded into” for “seeded in”, “removed. The fresh” for “removed. Fresh”, “the HepG2” for “the HepG2.2.15”

For data set [7], the system named is nucleoside drug-resistant HBV strain L180M + M204V. The description is as above. Particulars: Hepatitis B virus, HepG2, 192 h. The class given is cell-based. Here is the method: as §1, with “Compounds were tested for in vitro activity against nucleoside drug-resistant HBV strains using a transient transfection cell model. HepG2 cells” for “Anti-HBV Activity Experiment In Vitro: HepG2.2.15 cells”, “cells/well) that had been transfected with nucleoside drug-resistant HBV strains” for “cells/well)”, “seeded into” for “seeded in”, “removed. The fresh” for “removed. Fresh”, “the HepG2” for “the HepG2.2.15”

For data set [8], the system named is nucleoside drug-resistant HBV strain M204I + V173L. Described as above. Particulars: Hepatitis B virus, HepG2, 192 h. In kind it is cell-based. Here is the method: as §1, with “Compounds were tested for in vitro activity against nucleoside drug-resistant HBV strains using a transient transfection cell model. HepG2 cells” for “Anti-HBV Activity Experiment In Vitro: HepG2.2.15 cells”, “cells/well) that had been transfected with nucleoside drug-resistant HBV strains” for “cells/well)”, “seeded into” for “seeded in”, “removed. The fresh” for “removed. Fresh”, “the HepG2” for “the HepG2.2.15”

Data set [9] relates to HBV genotype HE974371 (A2). In words: Anti-different genotypic HBV strain activity assay in vitro, transient transfection. In kind it is cell-based. The following applies: Hepatitis B virus, HepG2. The method, then:
as §1, with “Compounds were tested for in vitro activity against different genotypic HBV strains using a transient transfection cell model. HepG2 cells” for “Anti-HBV Activity Experiment In Vitro: HepG2.2.15 cells”, “cells/well) that had been transfected with different HBV genotypic strains” for “cells/well)”, “seeded into” for “seeded in”, “removed. The fresh” for “removed. Fresh”, “to detected” for “to detect”, “the HepG2” for “the HepG2.2.15”

The test system of data set [10] is HBV genotype JN406371 (B). The description is as above. The class given is cell-based. The following applies: Hepatitis B virus, HepG2. The method, then: as §1, with “Compounds were tested for in vitro activity against different genotypic HBV strains using a transient transfection cell model. HepG2 cells” for “Anti-HBV Activity Experiment In Vitro: HepG2.2.15 cells”, “cells/well) that had been transfected with different HBV genotypic strains” for “cells/well)”, “seeded into” for “seeded in”, “removed. The fresh” for “removed. Fresh”, “to detected” for “to detect”, “the HepG2” for “the HepG2.2.15”

In data set [11] the test system is HBV genotype U95551 (D). The description is as above. The class given is cell-based. Particulars: Hepatitis B virus, HepG2. The method, then:
as §1, with “Compounds were tested for in vitro activity against different genotypic HBV strains using a transient transfection cell model. HepG2 cells” for “Anti-HBV Activity Experiment In Vitro: HepG2.2.15 cells”, “cells/well) that had been transfected with different HBV genotypic strains” for “cells/well)”, “seeded into” for “seeded in”, “removed. The fresh” for “removed. Fresh”, “to detected” for “to detect”, “the HepG2” for “the HepG2.2.15”

Data set [12] concerns HBV genotype AB033554 (B). The data set is described as above. Particulars: Hepatitis B virus, HepG2. The class given is cell-based. Here is the method:
as §1, with “Compounds were tested for in vitro activity against different genotypic HBV strains using a transient transfection cell model. HepG2 cells” for “Anti-HBV Activity Experiment In Vitro: HepG2.2.15 cells”, “cells/well) that had been transfected with different HBV genotypic strains” for “cells/well)”, “seeded into” for “seeded in”, “removed. The fresh” for “removed. Fresh”, “to detected” for “to detect”, “the HepG2” for “the HepG2.2.15”

In data set [13] the test system is HBV genotype AB246345 (C). The description is as above. In kind it is cell-based. Particulars: Hepatitis B virus, HepG2. Here is the method:
as §1, with “Compounds were tested for in vitro activity against different genotypic HBV strains using a transient transfection cell model. HepG2 cells” for “Anti-HBV Activity Experiment In Vitro: HepG2.2.15 cells”, “cells/well) that had been transfected with different HBV genotypic strains” for “cells/well)”, “seeded into” for “seeded in”, “removed. The fresh” for “removed. Fresh”, “to detected” for “to detect”, “the HepG2” for “the HepG2.2.15”

In data set [14] the test system is HBV genotype AP007263 (A). The data set is described as above. The following applies: Hepatitis B virus, HepG2. In kind it is cell-based. The method, then:
as §1, with “Compounds were tested for in vitro activity against different genotypic HBV strains using a transient transfection cell model. HepG2 cells” for “Anti-HBV Activity Experiment In Vitro: HepG2.2.15 cells”, “cells/well) that had been transfected with different HBV genotypic strains” for “cells/well)”, “seeded into” for “seeded in”, “removed. The fresh” for “removed. Fresh”, “to detected” for “to detect”, “the HepG2” for “the HepG2.2.15”

Data set [15] deals with HBV genotype AB246346 (C). Described as above. The following applies: Hepatitis B virus, HepG2. The class given is cell-based. Here is the method:
as §1, with “Compounds were tested for in vitro activity against different genotypic HBV strains using a transient transfection cell model. HepG2 cells” for “Anti-HBV Activity Experiment In Vitro: HepG2.2.15 cells”, “cells/well) that had been transfected with different HBV genotypic strains” for “cells/well)”, “seeded into” for “seeded in”, “removed. The fresh” for “removed. Fresh”, “to detected” for “to detect”, “the HepG2” for “the HepG2.2.15”

A short description of data set [16]: Pharmacokinetic determination in mice (subcutaneous). The class given is in vivo. The following applies: sc, female BALB/c mouse, single administration, plasma. The method, then:
In addition, the pharmacokinetics of the compound of Example 3 (R isomer) in the present application was determined in mice.
Test compounds were subcutaneously administered to female BALB/c mouse once and blood samples were taken at different time points. LC/MS/MS was used to determine the concentration of the test compounds in the […] plasma after administration of the test compounds and calculate relevant parameters.
Animal blood collection time points were: before administration, 5 min, […], 30 min, 1 h, 2 h, 4 h, 8 h and 24 h after administration.
Mass Spectrometer: Triple Quad 5500. Mass Spectrometry Conditions: SRM Detection
Liquid phase conditions: Column: XSELECT CSHTM XP C18 (2.1×50 mm, 2.5 μm); chromatographic mobile phase: mobile phase A: 0.025% FA & 1 mM NH4OAc in water/CAN solution (v:v, 95: 5), mobile phase B: 0.025% FA & 1 mM NH4OAc in ACN/water solution (v:v, 95: 5) (A:B =65%: 35%-10%: 90%); flow rate: 0.6 mL/min; column temperature: 50° C.
According to the drug blood concentration data, the pharmacokinetic parameters of the test compound were calculated using the pharmacokinetic calculation software WinNonlin 5.2 non-compartmental model.

The term EC50 denotes the concentration at which the effect is half-maximal. For orientation: AUC(0-inf) means total exposure, with the tail of the curve extrapolated. The low end stands for low exposure, the high end for high exposure. As a reminder, the Cmax is the highest concentration seen after dosing. One may read the Tmax as the time at which the peak concentration occurs. A word on the half-life: it is how long it takes for the measured level to halve. Higher therefore signals slow loss. Consider `O=C1CO[C@H](c2cn(-c3ccc(Br)cc3)nc2-c2ccc(F)cc2)N1CCc1ccc2[nH]c(=O)[nH]c2c1` [example 3 R isomer, (R)-3-(2-(2-oxo-2,3-dihydro-1H-benzo[d]imidazol-5-yl)ethyl)-2-(1-(4-bromophenyl)-3-(4-fluorophenyl)-1H-pyrazol-4-yl)-oxazolidin-4-one], for which the “decrease of HBV DNA content in mouse plasma” value in data set [1] (1st day) worked out at 0.55 log; in [1] (3rd day) it was 1.84 log. In addition, the EC50 in data set [2] worked out at 7.68 nM; in [3] it was 19.1 nM; in data set [4], 21.2 nM; in [5], 11.6 nM; in data set [6], 13.6 nM; in [7], 18.9 nM. Also, the concentration for a half-maximal effect (EC50) in [8] turned out to be 14 nM; in data set [9] it was 4.67 nM; in data set [10], 8.69 nM; in data set [11], 14.4 nM; in data set [12] it was 13.6 nM; in data set [13] it was 6.26 nM. Moreover, the results for the EC50 in [14] and in [15] were 33.9 nM and 14.6 nM, respectively. The molecule further came in with an AUC(0-inf) in [16] of 2080 ng·h/mL. The highest level in data set [16] (Cmax) was 643 ng/mL. Also, the Tmax in data set [16] stood at 1.33 h. Further, the half-life in data set [16] is 1.19 h. Moreover, the MRT inf in [16] (read-out: MRT0-inf) was 2.4 h.
